Structures are written as SMILES.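 Method: 48-hour compound exposure of cells in 96-well plates, five concentrations, linear interpolation of endpoints. GI50: concentration for 50% inhibition of growth.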 Active and inactive are the calls of the source. Cut-off read from the data, not from the text of the source: active = GI50 up to about 1.1 µM and inactive = higher.

Test systems include UACC-257; NCI/ADR-RES; NCI-H23; SR; LOX IMVI; MCF7; OVCAR-8; SF-268; SF-295; U-251; HOP-62; Malme-3M; ACHN; SNB-19; SF-539; UACC-62; HT-29; Hs-578T; HL-60; RXF 393.
Assay in all cases: NCI-60 cell line screen, 48 h

Take `Cc1cc(Nc2ccc(S(=O)(=O)O)cc2)c2ccccc2n1`: the GI50 in the test on UACC-257, with NCI/ADR-RES, in the test on NCI-H23, in the test with SR, in the test with LOX IMVI and with MCF7 was > 100 µM (inactive) each time. The GI50 with OVCAR-8 is > 100 µM (inactive); with SF-268, > 100 µM (inactive); in the test on SF-295 it was > 100 µM (inactive); in the test on U-251 it was > 100 µM (inactive); in the test on HOP-62, 40.9 µM (inactive); in the test on Malme-3M, > 100 µM (inactive). The GI50 with ACHN, in the test with SNB-19, in the test with SF-539, in the test on UACC-62, in the test with HT-29 and in the test on Hs-578T was > 100 µM (inactive) in each case. Moreover, the GI50 in the test on HL-60 is > 100 µM (inactive).
In the case of `C[C@]12Cc3cnc(-c4ccccc4)nc3C[C@@H]1CC[C@@H]1[C@@H]2CC[C@@]2(C)[C@H]1CC[C@]2(C)O`, the GI50 with UACC-257 is 20.2 µM (inactive); in the test with NCI/ADR-RES it was 15.4 µM (inactive); in the test with NCI-H23, 17.6 µM (inactive); in the test on SR, 6.59 µM (inactive); in the test on LOX IMVI, 4.6 µM (inactive); in the test with MCF7, 19.3 µM (inactive). In addition, the GI50 was 14.4 µM (inactive) in the test on OVCAR-8; 12.9 µM (inactive) in the test on SF-268; 14.8 µM (inactive) in the test on SF-295; 16 µM (inactive) in the test with U-251; 13.6 µM (inactive) in the test on HOP-62; 18.9 µM (inactive) in the test on Malme-3M. In addition, the GI50 in the test with ACHN was 14.2 µM (inactive); with SNB-19, 18.5 µM (inactive); in the test on SF-539, 1.33 µM (inactive); in the test with UACC-62, 11.2 µM (inactive); in the test on HT-29 it was 4.15 µM (inactive); in the test with Hs-578T, 17.4 µM (inactive). Besides, the GI50 in the test with HL-60 is 17.9 µM (inactive).
Regarding `Clc1cc2c(cc1Cl)CC(NCCN1CCCC1)CC2` (stereo not given), the GI50 in the test on UACC-257 was 7.82 µM (inactive); with NCI/ADR-RES, 13.7 µM (inactive); in the test on NCI-H23, 16 µM (inactive); in the test with SR, 10.6 µM (inactive); with LOX IMVI, 13.3 µM (inactive); with MCF7, 15.6 µM (inactive). In addition, the GI50 was 16.7 µM (inactive) in the test with OVCAR-8; 15.3 µM (inactive) in the test with SF-268; 16.1 µM (inactive) in the test with SF-295; 15.9 µM (inactive) in the test with U-251; 16 µM (inactive) in the test with HOP-62; 10.8 µM (inactive) in the test on Malme-3M. In addition, the GI50 is 17.9 µM (inactive) with ACHN; 20.5 µM (inactive) with SNB-19; 13.6 µM (inactive) in the test with SF-539; 2.87 µM (inactive) in the test on UACC-62; 4.35 µM (inactive) with HT-29; 21.2 µM (inactive) in the test with Hs-578T. In the test on HL-60, the GI50 was 14.6 µM (inactive).
Regarding `COc1ccccc1/C=C/c1cnccn1`, the GI50 in the test on UACC-257, with NCI/ADR-RES, with NCI-H23, in the test on LOX IMVI, in the test on MCF7 and in the test on OVCAR-8 was > 10 µM (inactive) throughout. Moreover, the GI50 in the test on SF-268, in the test with SF-295, in the test on U-251, with HOP-62, in the test with Malme-3M and in the test on ACHN was > 10 µM (inactive) each time. Besides, the GI50 with SNB-19, in the test on SF-539, with UACC-62, in the test on HT-29, in the test on Hs-578T and with RXF 393 was > 10 µM (inactive) throughout. Besides, the GI50 in the test with HL-60 is > 10 µM (inactive).
Consider `CN(C)c1ccc(/C=C2\N=C(c3ccccc3)N(c3ccc4c(c3)Sc3cc(N5C(=O)/C(=C/c6ccc(N(C)C)cc6)N=C5c5ccccc5)ccc3N4)C2=O)cc1`, for which the GI50 is 19.7 µM (inactive) in the test with UACC-257; 28.4 µM (inactive) in the test on NCI/ADR-RES; 90.6 µM (inactive) with SR; 19.5 µM (inactive) with LOX IMVI; 17 µM (inactive) in the test on MCF7; 18.1 µM (inactive) in the test on OVCAR-8. For the same molecule, the GI50 in the test on SF-268 is 19.2 µM (inactive); with SF-295 it was 15.2 µM (inactive); in the test on U-251, 15.6 µM (inactive); in the test with HOP-62, 13.7 µM (inactive); with ACHN, 16.7 µM (inactive); in the test with SNB-19 it was 17.5 µM (inactive). Moreover, the GI50 is 17.5 µM (inactive) in the test on SF-539; 16.6 µM (inactive) in the test on UACC-62; 54.7 µM (inactive) with HT-29; 27.1 µM (inactive) in the test on Hs-578T; 27.5 µM (inactive) in the test on HL-60.
Consider `CC1=C(/C=C/C(C)=C/C=C/C(C)=C/C(=O)Nc2ccc(O)cc2)C(C)(C)CCC1` [FENRETINIDE], for which the GI50 is 9.71 µM (inactive) in the test on UACC-257; 2.71 µM (inactive) in the test on NCI/ADR-RES; 2.06 µM (inactive) in the test with NCI-H23; 1.74 µM (inactive) in the test on LOX IMVI; 2.65 µM (inactive) in the test with MCF7; 3.61 µM (inactive) in the test with OVCAR-8. Besides, the GI50 in the test with SF-268 is 3.52 µM (inactive); in the test on SF-295, 2.85 µM (inactive); in the test on U-251, 4.65 µM (inactive); in the test on HOP-62 it was 5.46 µM (inactive); with Malme-3M, 4.94 µM (inactive); in the test with ACHN it was 4.19 µM (inactive). Also, the GI50 in the test on SNB-19 is 6.5 µM (inactive); with SF-539, 1.05 µM (active); with UACC-62, 2.12 µM (inactive); in the test on HT-29, 2.63 µM (inactive); in the test on Hs-578T, 3.33 µM (inactive); in the test with RXF 393 it was 2.04 µM (inactive). In addition, the GI50 in the test with HL-60 is 0.893 µM (active).
Take `O=C(CC(=O)Nc1ccccc1)N/N=C/c1cc(/N=N/c2ccc(Br)cc2)ccc1O`: the GI50 in the test on UACC-257 is 2.08 µM (inactive); in the test with NCI/ADR-RES, 2.88 µM (inactive); with NCI-H23, 2.6 µM (inactive); in the test on SR, 1.39 µM (inactive); in the test on LOX IMVI it was 4.28 µM (inactive); with MCF7 it was 2.99 µM (inactive). Further, the GI50 in the test with OVCAR-8 was 3.93 µM (inactive); in the test on SF-268 it was 4.5 µM (inactive); in the test with U-251 it was 3.61 µM (inactive); in the test on HOP-62 it was 5.3 µM (inactive); in the test on Malme-3M, 5.93 µM (inactive); with SF-539, 4.05 µM (inactive). Besides, the GI50 is 2.28 µM (inactive) in the test with UACC-62, > 10 µM (inactive) in the test on Hs-578T and 2.44 µM (inactive) with HL-60.
On to `NS(=O)(=O)c1nnc(/N=C(/CCC(=O)O)C(=O)O)s1`, for which the GI50 in the test with UACC-257, in the test on NCI/ADR-RES, in the test on NCI-H23, in the test with SR, with LOX IMVI and in the test with MCF7 was > 100 µM (inactive) in each case. For the same molecule, the GI50 with OVCAR-8 is > 100 µM (inactive); in the test with SF-295, > 100 µM (inactive); in the test with U-251, > 100 µM (inactive); in the test on HOP-62, > 100 µM (inactive); with Malme-3M, 41.3 µM (inactive); in the test on ACHN it was > 100 µM (inactive). Moreover, the GI50 with SNB-19, in the test with SF-539, with UACC-62, in the test with HT-29, in the test with Hs-578T and in the test on HL-60 was > 100 µM (inactive) each time.

Values taken from ChEMBL document CHEMBL1201862, “PubChem BioAssay data set” (2004).
